Experiment [1] concerns the target Protein arginine N-methyltransferase 1 (Homo sapiens, UniProt Q99873). In words: Inhibition of PRMT1 (unknown origin).
The target in experiment [2] is T1, Protein arginine N-methyltransferase 8 (Homo sapiens, UniProt Q9NR22). Put plainly: Inhibition of PRMT8 (unknown origin).
Target sequence in this assay (Q9NR22 whole entry): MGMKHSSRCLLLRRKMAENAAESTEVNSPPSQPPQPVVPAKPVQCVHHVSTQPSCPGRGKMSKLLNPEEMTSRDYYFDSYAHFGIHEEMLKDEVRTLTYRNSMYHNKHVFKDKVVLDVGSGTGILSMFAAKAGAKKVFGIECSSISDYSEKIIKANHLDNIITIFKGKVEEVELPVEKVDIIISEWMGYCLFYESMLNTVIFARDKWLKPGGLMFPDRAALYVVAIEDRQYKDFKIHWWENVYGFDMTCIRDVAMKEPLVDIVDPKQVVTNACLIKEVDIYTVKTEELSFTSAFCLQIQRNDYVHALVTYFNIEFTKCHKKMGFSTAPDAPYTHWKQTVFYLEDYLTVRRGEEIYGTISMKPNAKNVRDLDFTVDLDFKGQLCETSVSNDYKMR
In experiment [3] the target is T2, Histone-arginine methyltransferase CARM1 (Homo sapiens, UniProt Q86X55).
T2 sequence (Q86X55 whole entry): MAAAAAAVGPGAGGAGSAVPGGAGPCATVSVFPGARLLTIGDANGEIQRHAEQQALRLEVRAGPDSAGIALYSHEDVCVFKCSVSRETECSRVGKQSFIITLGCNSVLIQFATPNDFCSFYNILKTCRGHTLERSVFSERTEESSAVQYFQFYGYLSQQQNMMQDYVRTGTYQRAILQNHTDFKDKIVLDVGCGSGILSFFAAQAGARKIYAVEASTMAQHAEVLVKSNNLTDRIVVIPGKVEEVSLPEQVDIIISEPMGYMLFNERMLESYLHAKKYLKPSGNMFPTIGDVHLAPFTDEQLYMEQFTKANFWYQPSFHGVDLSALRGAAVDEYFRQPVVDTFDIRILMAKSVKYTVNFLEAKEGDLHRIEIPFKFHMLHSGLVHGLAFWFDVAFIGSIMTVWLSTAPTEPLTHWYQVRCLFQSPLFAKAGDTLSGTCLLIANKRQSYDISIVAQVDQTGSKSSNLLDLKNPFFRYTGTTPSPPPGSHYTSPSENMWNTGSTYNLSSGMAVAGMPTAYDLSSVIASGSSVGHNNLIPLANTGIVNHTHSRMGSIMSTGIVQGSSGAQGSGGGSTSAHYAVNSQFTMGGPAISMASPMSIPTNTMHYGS
In words: Inhibition of PRMT4 (unknown origin).

Experiment [4] concerns the target T3, Protein arginine N-methyltransferase 6 (Homo sapiens, UniProt Q96LA8). In words: Inhibition of PRMT6 (unknown origin).
Target sequence in this assay (Q96LA8 whole entry): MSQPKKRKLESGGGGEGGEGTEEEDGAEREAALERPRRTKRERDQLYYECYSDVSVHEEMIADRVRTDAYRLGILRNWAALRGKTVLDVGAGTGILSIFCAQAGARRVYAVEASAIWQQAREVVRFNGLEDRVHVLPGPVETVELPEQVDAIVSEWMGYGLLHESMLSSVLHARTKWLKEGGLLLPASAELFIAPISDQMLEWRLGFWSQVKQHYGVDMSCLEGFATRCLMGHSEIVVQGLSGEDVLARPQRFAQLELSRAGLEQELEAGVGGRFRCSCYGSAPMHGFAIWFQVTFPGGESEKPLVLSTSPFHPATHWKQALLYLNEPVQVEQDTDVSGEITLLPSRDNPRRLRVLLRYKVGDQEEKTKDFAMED
The target of experiment [5] is T4, Protein arginine N-methyltransferase 3 (Homo sapiens, UniProt O60678). Put plainly: Inhibition of PRMT3 (unknown origin).
Target sequence in this assay (O60678 whole entry): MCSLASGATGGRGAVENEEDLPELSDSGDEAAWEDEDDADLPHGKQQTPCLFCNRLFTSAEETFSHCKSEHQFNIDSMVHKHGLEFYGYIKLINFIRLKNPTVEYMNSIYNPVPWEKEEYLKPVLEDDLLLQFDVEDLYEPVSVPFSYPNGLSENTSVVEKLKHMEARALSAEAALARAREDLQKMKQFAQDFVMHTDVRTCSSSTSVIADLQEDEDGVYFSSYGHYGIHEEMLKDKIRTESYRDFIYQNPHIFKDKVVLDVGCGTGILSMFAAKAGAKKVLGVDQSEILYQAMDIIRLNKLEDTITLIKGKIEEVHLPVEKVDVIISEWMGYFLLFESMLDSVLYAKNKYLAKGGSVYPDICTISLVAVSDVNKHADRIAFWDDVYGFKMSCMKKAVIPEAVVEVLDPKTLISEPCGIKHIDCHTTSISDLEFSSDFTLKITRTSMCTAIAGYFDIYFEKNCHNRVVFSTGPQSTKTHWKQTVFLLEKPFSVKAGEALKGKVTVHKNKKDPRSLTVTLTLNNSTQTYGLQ
Experiment [6] addresses T4, Protein arginine N-methyltransferase 3. In words: Displacement of 3H-SAM from human PRMT3 at 50 uM in presence of substrate by SPA assay. A general note: Displacement assays read how much labelled ligand stays bound in the presence of the test substance.
Target sequence in this assay (O60678 2-531 limits assumed): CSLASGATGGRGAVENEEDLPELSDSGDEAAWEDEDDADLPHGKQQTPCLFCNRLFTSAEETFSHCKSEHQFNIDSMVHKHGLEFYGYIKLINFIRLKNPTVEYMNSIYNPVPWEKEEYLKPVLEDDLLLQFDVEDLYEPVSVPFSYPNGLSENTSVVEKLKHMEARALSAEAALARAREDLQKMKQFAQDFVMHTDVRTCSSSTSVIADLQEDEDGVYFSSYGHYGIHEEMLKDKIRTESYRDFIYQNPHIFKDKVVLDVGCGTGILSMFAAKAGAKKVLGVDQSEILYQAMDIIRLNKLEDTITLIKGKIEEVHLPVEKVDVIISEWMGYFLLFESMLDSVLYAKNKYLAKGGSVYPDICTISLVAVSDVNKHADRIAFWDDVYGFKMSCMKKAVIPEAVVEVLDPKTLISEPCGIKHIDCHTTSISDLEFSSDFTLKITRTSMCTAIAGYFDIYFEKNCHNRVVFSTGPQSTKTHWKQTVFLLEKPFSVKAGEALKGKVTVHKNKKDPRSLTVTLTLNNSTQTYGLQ
The target of experiment [7] is T3, Protein arginine N-methyltransferase 6. In words: Displacement of 3H-SAM from human PRMT6 at 50 uM in presence of substrate by SPA assay.
Target sequence in this assay (Q96LA8 whole entry, looked up): as the sequence (Q96LA8 whole entry) above
The target of experiment [8] is T1, Protein arginine N-methyltransferase 8. In words: Displacement of 3H-SAM from human PRMT8 at 50 uM in presence of substrate by SPA assay.
Target sequence in this assay (Q9NR22 2-394 limits assumed): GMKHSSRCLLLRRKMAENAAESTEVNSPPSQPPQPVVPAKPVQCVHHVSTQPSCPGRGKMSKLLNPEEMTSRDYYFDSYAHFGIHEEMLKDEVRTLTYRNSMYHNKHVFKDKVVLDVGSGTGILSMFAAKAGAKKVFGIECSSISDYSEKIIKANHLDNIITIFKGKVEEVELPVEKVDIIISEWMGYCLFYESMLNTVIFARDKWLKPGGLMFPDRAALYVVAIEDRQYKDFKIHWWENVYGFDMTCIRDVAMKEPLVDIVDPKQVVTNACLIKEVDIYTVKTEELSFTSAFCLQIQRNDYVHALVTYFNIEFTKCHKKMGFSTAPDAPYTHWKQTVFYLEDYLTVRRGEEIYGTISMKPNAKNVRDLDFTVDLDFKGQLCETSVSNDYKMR
Experiment [9] has as its target T5, Histone-lysine N-methyltransferase SUV39H1 (Homo sapiens) (UniProt O43463).
T5 sequence (whole entry): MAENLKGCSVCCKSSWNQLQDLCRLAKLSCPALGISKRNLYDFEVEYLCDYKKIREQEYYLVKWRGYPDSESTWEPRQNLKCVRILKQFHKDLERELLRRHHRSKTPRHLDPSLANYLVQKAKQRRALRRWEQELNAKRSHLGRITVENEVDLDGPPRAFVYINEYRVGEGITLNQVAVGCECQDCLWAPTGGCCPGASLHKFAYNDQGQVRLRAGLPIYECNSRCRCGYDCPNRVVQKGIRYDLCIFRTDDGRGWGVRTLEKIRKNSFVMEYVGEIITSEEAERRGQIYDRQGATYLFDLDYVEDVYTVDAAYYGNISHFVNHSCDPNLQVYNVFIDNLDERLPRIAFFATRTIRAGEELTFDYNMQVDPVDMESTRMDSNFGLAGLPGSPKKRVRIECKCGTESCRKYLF
Put plainly: Displacement of 3H-SAM from SUV39H1 (unknown origin) using biotinylated-histone H3 peptide as substrate at 30 uM incubated for 45 mins by SPA assay relative to control.

Experiment [10] deals with T6, Histone-lysine N-methyltransferase SMYD3 (Homo sapiens) (UniProt Q9H7B4).
T6 sequence (whole entry): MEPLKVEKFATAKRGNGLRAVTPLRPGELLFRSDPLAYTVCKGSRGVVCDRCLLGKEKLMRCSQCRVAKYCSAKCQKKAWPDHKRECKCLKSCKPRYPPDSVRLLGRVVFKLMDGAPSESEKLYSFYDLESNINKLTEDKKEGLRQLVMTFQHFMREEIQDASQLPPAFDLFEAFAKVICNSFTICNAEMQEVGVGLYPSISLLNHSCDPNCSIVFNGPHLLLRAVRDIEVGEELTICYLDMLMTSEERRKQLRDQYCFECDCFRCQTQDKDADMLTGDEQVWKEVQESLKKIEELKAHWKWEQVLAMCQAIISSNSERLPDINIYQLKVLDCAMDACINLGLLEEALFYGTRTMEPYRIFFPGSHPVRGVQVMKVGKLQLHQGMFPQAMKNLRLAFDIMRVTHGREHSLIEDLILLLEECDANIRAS
Put plainly: Displacement of 3H-SAM from SMYD3 (unknown origin) using biotinylated-MAP3K2 as substrate at 30 uM incubated for 45 mins by SPA assay relative to control.

In experiment [11] the target is Histone-lysine N-methyltransferase, H3 lysine-79 specific (Homo sapiens) (UniProt Q8TEK3). Put plainly: Displacement of 3H-SAM from DOT1L (unknown origin) at 30 uM incubated for 1 hr in presence of substrate by SPA assay relative to control.
Experiment [12] concerns the target Protein arginine N-methyltransferase 5 (Homo sapiens) (UniProt O14744). In words: Displacement of 3H-SAM from human PRMT5 at 50 uM in presence of substrate by SPA assay.
The target of experiment [13] is T7, Histone-arginine methyltransferase CARM1 (Homo sapiens) (UniProt Q86X55).
T7 sequence (whole entry): T2 sequence (Q86X55 whole entry)
In words: Displacement of 3H-SAM from human PRMT4 at 50 uM in presence of substrate by SPA assay.

Experiment [14] deals with T8, Protein arginine N-methyltransferase 9 (Homo sapiens) (UniProt Q6P2P2).
T8 sequence (whole entry): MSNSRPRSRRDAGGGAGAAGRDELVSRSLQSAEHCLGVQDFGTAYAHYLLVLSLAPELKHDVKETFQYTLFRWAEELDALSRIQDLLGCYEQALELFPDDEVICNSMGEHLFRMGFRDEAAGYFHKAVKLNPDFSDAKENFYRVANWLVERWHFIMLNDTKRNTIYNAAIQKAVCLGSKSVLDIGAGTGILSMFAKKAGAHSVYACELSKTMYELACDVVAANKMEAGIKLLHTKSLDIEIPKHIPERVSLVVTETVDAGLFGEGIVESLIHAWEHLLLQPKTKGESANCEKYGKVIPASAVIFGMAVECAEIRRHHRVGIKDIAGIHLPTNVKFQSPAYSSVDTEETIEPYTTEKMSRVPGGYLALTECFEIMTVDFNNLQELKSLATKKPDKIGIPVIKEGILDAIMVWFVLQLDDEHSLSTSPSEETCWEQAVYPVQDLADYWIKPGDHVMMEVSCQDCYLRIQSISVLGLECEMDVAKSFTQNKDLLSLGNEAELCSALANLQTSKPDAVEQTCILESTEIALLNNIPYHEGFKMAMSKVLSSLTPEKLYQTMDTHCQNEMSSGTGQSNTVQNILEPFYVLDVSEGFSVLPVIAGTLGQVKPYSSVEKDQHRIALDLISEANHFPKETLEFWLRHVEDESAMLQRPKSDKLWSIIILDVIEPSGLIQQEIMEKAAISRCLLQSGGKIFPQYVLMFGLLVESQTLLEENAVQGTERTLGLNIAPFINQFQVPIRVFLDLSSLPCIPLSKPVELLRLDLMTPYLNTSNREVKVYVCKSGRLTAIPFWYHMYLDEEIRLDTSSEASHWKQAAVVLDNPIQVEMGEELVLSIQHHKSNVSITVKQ
In words: Displacement of 3H-SAM from human PRMT9 at 50 uM in presence of substrate by SPA assay.

Experiment [15] addresses T9, Protein arginine N-methyltransferase 7 (Homo sapiens) (UniProt Q9NVM4).
T9 sequence (whole entry): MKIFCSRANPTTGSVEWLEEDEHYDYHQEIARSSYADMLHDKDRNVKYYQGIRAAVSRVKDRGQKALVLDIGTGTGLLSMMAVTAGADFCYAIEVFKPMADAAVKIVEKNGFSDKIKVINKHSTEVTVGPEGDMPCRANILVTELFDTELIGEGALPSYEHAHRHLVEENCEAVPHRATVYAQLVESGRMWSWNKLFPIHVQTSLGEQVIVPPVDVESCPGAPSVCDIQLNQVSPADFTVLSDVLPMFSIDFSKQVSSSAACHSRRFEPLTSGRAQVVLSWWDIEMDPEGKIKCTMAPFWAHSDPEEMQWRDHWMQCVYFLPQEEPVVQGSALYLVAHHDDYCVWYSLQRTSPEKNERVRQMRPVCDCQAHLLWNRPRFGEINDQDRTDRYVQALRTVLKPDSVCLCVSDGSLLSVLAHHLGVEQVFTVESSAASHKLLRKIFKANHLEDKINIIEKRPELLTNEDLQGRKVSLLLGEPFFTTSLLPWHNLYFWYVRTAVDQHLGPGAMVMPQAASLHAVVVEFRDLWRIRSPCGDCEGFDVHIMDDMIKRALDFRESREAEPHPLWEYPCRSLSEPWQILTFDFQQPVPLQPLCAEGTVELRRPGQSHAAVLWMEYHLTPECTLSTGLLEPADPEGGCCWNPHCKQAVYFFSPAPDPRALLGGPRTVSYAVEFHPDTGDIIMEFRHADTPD
Put plainly: Displacement of 3H-SAM from human PRMT7 at 50 uM in presence of substrate by SPA assay.

Molecules are shown by their SMILES. Calls of active or inactive are those of the source. The rule behind the calls is not given here. Some results are limits rather than exact numbers.

Experimental findings from ChEMBL document CHEMBL5625232, “Development of selective class I protein arginine methyltransferase inhibitors through fragment-based drug design approach” (Eur J Med Chem, 2023) are described below.

Chain of Histone-lysine N-methyltransferase, H3 lysine-79 specific (Homo sapiens) (Q8TEK3 whole entry, looked up): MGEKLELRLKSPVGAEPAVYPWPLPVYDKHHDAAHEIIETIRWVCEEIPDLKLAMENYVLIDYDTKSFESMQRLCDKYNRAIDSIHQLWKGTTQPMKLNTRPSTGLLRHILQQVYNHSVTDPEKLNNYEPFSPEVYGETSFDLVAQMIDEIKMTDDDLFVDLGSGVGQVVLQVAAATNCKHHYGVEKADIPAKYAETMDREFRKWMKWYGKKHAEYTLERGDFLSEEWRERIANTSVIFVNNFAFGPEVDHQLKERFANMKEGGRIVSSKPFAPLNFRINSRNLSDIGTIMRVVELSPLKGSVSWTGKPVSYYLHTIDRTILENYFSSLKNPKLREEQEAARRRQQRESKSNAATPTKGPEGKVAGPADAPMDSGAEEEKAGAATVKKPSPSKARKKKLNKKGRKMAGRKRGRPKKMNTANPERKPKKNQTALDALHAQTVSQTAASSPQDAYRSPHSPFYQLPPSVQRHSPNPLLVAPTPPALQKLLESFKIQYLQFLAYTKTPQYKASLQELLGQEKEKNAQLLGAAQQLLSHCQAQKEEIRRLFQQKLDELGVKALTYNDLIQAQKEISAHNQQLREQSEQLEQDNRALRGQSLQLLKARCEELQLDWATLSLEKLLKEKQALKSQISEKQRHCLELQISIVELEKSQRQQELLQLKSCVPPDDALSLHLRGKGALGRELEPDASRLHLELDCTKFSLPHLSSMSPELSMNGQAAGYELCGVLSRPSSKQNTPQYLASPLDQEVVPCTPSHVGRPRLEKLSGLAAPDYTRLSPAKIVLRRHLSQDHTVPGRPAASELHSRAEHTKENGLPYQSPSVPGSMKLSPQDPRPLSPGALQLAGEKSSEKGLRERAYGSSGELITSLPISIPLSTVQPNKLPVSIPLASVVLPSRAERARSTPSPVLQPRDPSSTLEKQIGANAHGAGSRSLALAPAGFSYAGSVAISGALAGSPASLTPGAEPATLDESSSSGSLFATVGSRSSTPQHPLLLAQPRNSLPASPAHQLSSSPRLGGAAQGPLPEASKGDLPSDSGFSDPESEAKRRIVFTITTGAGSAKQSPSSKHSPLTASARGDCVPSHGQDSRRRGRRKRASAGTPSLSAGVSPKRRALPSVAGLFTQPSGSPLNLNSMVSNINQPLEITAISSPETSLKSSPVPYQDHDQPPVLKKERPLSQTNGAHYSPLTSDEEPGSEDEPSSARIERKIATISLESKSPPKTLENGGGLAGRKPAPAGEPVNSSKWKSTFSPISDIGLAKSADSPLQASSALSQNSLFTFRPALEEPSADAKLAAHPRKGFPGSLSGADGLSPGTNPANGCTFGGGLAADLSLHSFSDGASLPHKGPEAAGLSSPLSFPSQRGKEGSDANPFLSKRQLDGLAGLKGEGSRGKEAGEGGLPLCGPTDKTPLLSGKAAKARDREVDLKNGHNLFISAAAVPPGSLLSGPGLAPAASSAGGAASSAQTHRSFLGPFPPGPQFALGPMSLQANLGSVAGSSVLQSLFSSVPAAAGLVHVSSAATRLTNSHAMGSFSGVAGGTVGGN
Chain of Protein arginine N-methyltransferase 5 (Homo sapiens) (O14744 whole entry): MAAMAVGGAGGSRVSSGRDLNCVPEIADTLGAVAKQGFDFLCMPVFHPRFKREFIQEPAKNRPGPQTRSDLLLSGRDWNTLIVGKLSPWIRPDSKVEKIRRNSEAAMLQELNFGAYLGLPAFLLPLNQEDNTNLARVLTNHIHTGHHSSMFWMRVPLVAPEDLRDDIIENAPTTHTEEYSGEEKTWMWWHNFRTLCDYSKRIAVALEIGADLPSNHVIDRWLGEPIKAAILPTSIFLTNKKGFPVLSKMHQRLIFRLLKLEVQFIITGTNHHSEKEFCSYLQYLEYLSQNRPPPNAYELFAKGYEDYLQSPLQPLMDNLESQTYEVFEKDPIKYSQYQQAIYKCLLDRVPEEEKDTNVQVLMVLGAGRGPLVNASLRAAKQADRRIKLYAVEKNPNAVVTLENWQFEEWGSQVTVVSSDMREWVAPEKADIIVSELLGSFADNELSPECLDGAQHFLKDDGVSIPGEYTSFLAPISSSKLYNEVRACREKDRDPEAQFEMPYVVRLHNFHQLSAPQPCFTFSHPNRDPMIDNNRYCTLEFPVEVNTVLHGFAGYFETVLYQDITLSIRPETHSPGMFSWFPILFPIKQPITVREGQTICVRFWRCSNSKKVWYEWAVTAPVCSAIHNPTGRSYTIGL
Chain of Protein arginine N-methyltransferase 1 (Q99873 whole entry): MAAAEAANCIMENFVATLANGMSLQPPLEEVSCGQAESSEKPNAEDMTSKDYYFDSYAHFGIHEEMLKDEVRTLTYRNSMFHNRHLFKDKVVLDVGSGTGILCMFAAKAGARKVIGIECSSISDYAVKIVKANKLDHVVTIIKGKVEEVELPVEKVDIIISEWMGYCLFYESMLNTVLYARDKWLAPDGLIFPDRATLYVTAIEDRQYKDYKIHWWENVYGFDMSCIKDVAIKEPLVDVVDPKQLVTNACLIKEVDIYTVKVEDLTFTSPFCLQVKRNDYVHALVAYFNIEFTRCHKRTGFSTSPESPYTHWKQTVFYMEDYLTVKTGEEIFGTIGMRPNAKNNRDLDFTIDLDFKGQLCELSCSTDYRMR

For orientation: IC50 means the midpoint of a concentration-inhibition curve. A higher IC50 goes with a need for much substance. On to `CC(C)Oc1ccc(-c2c[nH]cc2CNCCN)cc1`, for which the IC50 in [1] amounted to 30 nM; in experiment [2] it was 5 nM; in experiment [3], 83 nM; in experiment [4] it was 4 nM; in experiment [5], 119 nM.

By inhibition is commonly meant how much of the control response was suppressed. With `CN(C)CCCNC(=O)c1ccc2c(Nc3ccc(CN)cc3)ncnc2c1`, the inhibition entry in experiment [6], in [7], in [8], in experiment [12], in [13] and in [14] was “Active” throughout. In addition, the inhibition entry in experiment [15] was “Active”. The values for the inhibition in experiment [9], in experiment [10] and in experiment [11] were below 25%, below 25% and 0%, respectively.
